#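 The compound was tested at five concentrations on cells cultured in 96-well plates, with a 48-hour exposure period. TGI marks complete inhibition of growth.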
# Tests used:
# Assay in all cases: DTP human tumour cell line panel, 48 h
# 786-0 renal = system: 786-0 renal
# A498 renal = system: A498 renal
# A549 NSCLC = system: A549 NSCLC
# ACHN renal = system: ACHN renal
# BT-549 breast = system: BT-549 breast
# CAKI-1 renal = system: CAKI-1 renal
# CCRF-CEM leukemia = system: CCRF-CEM leukemia
# COLO 205 colon = system: COLO 205 colon
# DU-145 prostate = system: DU-145 prostate
# EKVX NSCLC = system: EKVX NSCLC
# HCC-2998 colon = system: HCC-2998 colon
# HCT-116 colon = system: HCT-116 colon
# HCT-15 colon = system: HCT-15 colon
# HOP-62 NSCLC = system: HOP-62 NSCLC
# HOP-92 NSCLC = system: HOP-92 NSCLC
# HS 578T breast = system: HS 578T breast
# HT29 colon = system: HT29 colon
# K-562 leukemia = system: K-562 leukemia
# KM12 colon = system: KM12 colon
# M14 melanoma = system: M14 melanoma
# MCF7 breast = system: MCF7 breast
# MDA-MB-231 breast = system: MDA-MB-231 breast
# MDA-MB-435 = system: MDA-MB-435
# MDA-N = system: MDA-N
# MOLT-4 leukemia = system: MOLT-4 leukemia
# NCI-H23 lung = system: NCI-H23 lung
# NCI-H460 lung = system: NCI-H460 lung
# NCI-H522 lung = system: NCI-H522 lung
# NCI/ADR-RES ovarian = system: NCI/ADR-RES ovarian
# OVCAR-4 ovarian = system: OVCAR-4 ovarian
# OVCAR-5 ovarian = system: OVCAR-5 ovarian
# OVCAR-8 ovarian = system: OVCAR-8 ovarian
# RPMI-8226 leukemia = system: RPMI-8226 leukemia
# RXF 393 renal = system: RXF 393 renal
# SF-268 CNS = system: SF-268 CNS
# SF-295 CNS = system: SF-295 CNS
# SF-539 CNS = system: SF-539 CNS
# SK-MEL-2 melanoma = system: SK-MEL-2 melanoma
# SK-MEL-28 melanoma = system: SK-MEL-28 melanoma
# SK-OV-3 ovarian = system: SK-OV-3 ovarian
# SN12C renal = system: SN12C renal
# SNB-19 CNS = system: SNB-19 CNS
# SR leukemia = system: SR leukemia
# SW-620 colon = system: SW-620 colon
# T-47D breast = system: T-47D breast
# TK-10 renal = system: TK-10 renal
# U251 CNS = system: U251 CNS
# UACC-257 melanoma = system: UACC-257 melanoma
# UACC-62 melanoma = system: UACC-62 melanoma
# UO-31 renal = system: UO-31 renal
# HL-60(TB) leukemia = system: HL-60(TB) leukemia
# IGROV1 ovarian = system: IGROV1 ovarian
# MALME-3M melanoma = system: MALME-3M melanoma
# NCI-H226 lung = system: NCI-H226 lung
# OVCAR-3 ovarian = system: OVCAR-3 ovarian
# PC-3 prostate = system: PC-3 prostate
# SK-MEL-5 melanoma = system: SK-MEL-5 melanoma
# SNB-75 CNS = system: SNB-75 CNS
# LOX IMVI melanoma = system: LOX IMVI melanoma
compound,measurement,setting,value
CCN(CC)CCNC(=O)c1cc2cc(NC(=O)c3cc4cc(N)ccc4[nH]3)ccc2[nH]1,TGI,786-0 renal,> 100 µM
same,TGI,A498 renal,> 100 µM
same,TGI,A549 NSCLC,> 100 µM
same,TGI,ACHN renal,> 100 µM
same,TGI,BT-549 breast,> 100 µM
same,TGI,CAKI-1 renal,> 100 µM
same,TGI,CCRF-CEM leukemia,38.9 µM
same,TGI,COLO 205 colon,25.6 µM
same,TGI,DU-145 prostate,47.1 µM
same,TGI,EKVX NSCLC,> 100 µM
same,TGI,HCC-2998 colon,36.3 µM
same,TGI,HCT-116 colon,79.7 µM
same,TGI,HCT-15 colon,> 100 µM
same,TGI,HOP-62 NSCLC,> 100 µM
same,TGI,HOP-92 NSCLC,> 100 µM
same,TGI,HS 578T breast,> 100 µM
same,TGI,HT29 colon,> 100 µM
same,TGI,K-562 leukemia,> 100 µM
same,TGI,KM12 colon,28 µM
same,TGI,M14 melanoma,77.1 µM
same,TGI,MCF7 breast,36.8 µM
same,TGI,MDA-MB-231 breast,73.4 µM
same,TGI,MDA-MB-435,58 µM
same,TGI,MDA-N,> 100 µM
same,TGI,MOLT-4 leukemia,48.5 µM
same,TGI,NCI-H23 lung,> 100 µM
same,TGI,NCI-H460 lung,> 100 µM
same,TGI,NCI-H522 lung,46.7 µM
same,TGI,NCI/ADR-RES ovarian,> 100 µM
same,TGI,OVCAR-4 ovarian,27.7 µM
same,TGI,OVCAR-5 ovarian,> 100 µM
same,TGI,OVCAR-8 ovarian,> 100 µM
same,TGI,RPMI-8226 leukemia,74.5 µM
same,TGI,RXF 393 renal,61.3 µM
same,TGI,SF-268 CNS,> 100 µM
same,TGI,SF-295 CNS,> 100 µM
same,TGI,SF-539 CNS,85.3 µM
same,TGI,SK-MEL-2 melanoma,> 100 µM
same,TGI,SK-MEL-28 melanoma,> 100 µM
same,TGI,SK-OV-3 ovarian,> 100 µM
same,TGI,SN12C renal,> 100 µM
same,TGI,SNB-19 CNS,> 100 µM
same,TGI,SR leukemia,55 µM
same,TGI,SW-620 colon,> 100 µM
same,TGI,T-47D breast,> 100 µM
same,TGI,TK-10 renal,> 100 µM
same,TGI,U251 CNS,> 100 µM
same,TGI,UACC-257 melanoma,> 100 µM
same,TGI,UACC-62 melanoma,59.3 µM
same,TGI,UO-31 renal,> 100 µM
COc1cc(COC(=O)N2CSCC2C(=O)O)c([N+](=O)[O-])cc1OC (centres undefined),TGI,786-0 renal,> 100 µM
same,TGI,A549 NSCLC,> 100 µM
same,TGI,ACHN renal,> 100 µM
same,TGI,BT-549 breast,> 100 µM
same,TGI,CCRF-CEM leukemia,> 100 µM
same,TGI,DU-145 prostate,> 100 µM
same,TGI,EKVX NSCLC,> 100 µM
same,TGI,HCC-2998 colon,> 100 µM
same,TGI,HCT-116 colon,> 100 µM
same,TGI,HCT-15 colon,> 100 µM
same,TGI,HL-60(TB) leukemia,> 100 µM
same,TGI,HOP-62 NSCLC,> 100 µM
same,TGI,HOP-92 NSCLC,> 100 µM
same,TGI,HS 578T breast,> 100 µM
same,TGI,HT29 colon,> 100 µM
same,TGI,IGROV1 ovarian,> 100 µM
same,TGI,K-562 leukemia,> 100 µM
same,TGI,KM12 colon,> 100 µM
same,TGI,M14 melanoma,> 100 µM
same,TGI,MALME-3M melanoma,> 100 µM
same,TGI,MCF7 breast,> 100 µM
same,TGI,MDA-MB-435,> 100 µM
same,TGI,MDA-N,> 100 µM
same,TGI,MOLT-4 leukemia,> 100 µM
same,TGI,NCI-H226 lung,> 100 µM
same,TGI,NCI-H23 lung,> 100 µM
same,TGI,NCI-H460 lung,> 100 µM
same,TGI,NCI/ADR-RES ovarian,> 100 µM
same,TGI,OVCAR-3 ovarian,> 100 µM
same,TGI,OVCAR-5 ovarian,> 100 µM
same,TGI,OVCAR-8 ovarian,> 100 µM
same,TGI,PC-3 prostate,> 100 µM
same,TGI,RPMI-8226 leukemia,> 100 µM
same,TGI,SF-268 CNS,> 100 µM
same,TGI,SF-295 CNS,> 100 µM
same,TGI,SF-539 CNS,> 100 µM
same,TGI,SK-MEL-5 melanoma,> 100 µM
same,TGI,SK-OV-3 ovarian,> 100 µM
same,TGI,SN12C renal,> 100 µM
same,TGI,SNB-19 CNS,> 100 µM
same,TGI,SNB-75 CNS,> 100 µM
same,TGI,SR leukemia,> 100 µM
same,TGI,SW-620 colon,> 100 µM
same,TGI,T-47D breast,> 100 µM
same,TGI,U251 CNS,> 100 µM
same,TGI,UACC-257 melanoma,> 100 µM
same,TGI,UACC-62 melanoma,> 100 µM
same,TGI,UO-31 renal,> 100 µM
C=Cc1c(C)c(O)cc2c1-c1ccc(O)c(C)c1CC2,TGI,786-0 renal,34 µM
same,TGI,A498 renal,27.7 µM
same,TGI,A549 NSCLC,55.7 µM
same,TGI,ACHN renal,81.1 µM
same,TGI,BT-549 breast,59.7 µM
same,TGI,CAKI-1 renal,46.2 µM
same,TGI,CCRF-CEM leukemia,40.6 µM
same,TGI,COLO 205 colon,41.8 µM
same,TGI,DU-145 prostate,28.5 µM
same,TGI,EKVX NSCLC,24.3 µM
same,TGI,HCC-2998 colon,35.3 µM
same,TGI,HCT-116 colon,28.4 µM
same,TGI,HCT-15 colon,44.5 µM
same,TGI,HL-60(TB) leukemia,38.6 µM
same,TGI,HOP-62 NSCLC,83.8 µM
same,TGI,HOP-92 NSCLC,54.5 µM
same,TGI,HS 578T breast,21.7 µM
same,TGI,HT29 colon,53.2 µM
same,TGI,IGROV1 ovarian,35.6 µM
same,TGI,KM12 colon,30 µM
same,TGI,LOX IMVI melanoma,31.8 µM
same,TGI,M14 melanoma,52.5 µM
same,TGI,MALME-3M melanoma,45.9 µM
same,TGI,MCF7 breast,38.9 µM
same,TGI,MDA-MB-231 breast,60.6 µM
same,TGI,MDA-MB-435,28.2 µM
same,TGI,MDA-N,36.6 µM
same,TGI,MOLT-4 leukemia,30.6 µM
same,TGI,NCI-H226 lung,43 µM
same,TGI,NCI-H23 lung,41.3 µM
same,TGI,NCI-H460 lung,45 µM
same,TGI,NCI-H522 lung,43.1 µM
same,TGI,NCI/ADR-RES ovarian,71.8 µM
same,TGI,OVCAR-3 ovarian,> 100 µM
same,TGI,OVCAR-4 ovarian,92 µM
same,TGI,OVCAR-5 ovarian,> 100 µM
same,TGI,OVCAR-8 ovarian,39.4 µM
same,TGI,RPMI-8226 leukemia,56.6 µM
same,TGI,RXF 393 renal,30.2 µM
same,TGI,SF-268 CNS,63.5 µM
same,TGI,SF-295 CNS,32.2 µM
same,TGI,SF-539 CNS,29.3 µM
same,TGI,SK-MEL-2 melanoma,35.5 µM
same,TGI,SK-MEL-28 melanoma,31.5 µM
same,TGI,SK-MEL-5 melanoma,33 µM
same,TGI,SK-OV-3 ovarian,36.2 µM
same,TGI,SN12C renal,43.1 µM
same,TGI,SNB-19 CNS,74.5 µM
same,TGI,SR leukemia,17.7 µM
same,TGI,SW-620 colon,54.6 µM
same,TGI,T-47D breast,27.1 µM
same,TGI,TK-10 renal,41.4 µM
same,TGI,U251 CNS,34.3 µM
same,TGI,UACC-257 melanoma,28 µM
same,TGI,UACC-62 melanoma,23.1 µM
same,TGI,UO-31 renal,32.2 µM

# — PubChem BioAssay (NCI)
